Data: ChEMBL document CHEMBL5055633, “Amphipathic Barbiturates as Mimics of Antimicrobial Peptides and the Marine Natural Products Eusynstyelamides with Activity against Multi-resistant Clinical Isolates” (J Med Chem, 2021)

What was measured:
[1] = tested on: HepG2; assay: Cytotoxicity against human HepG2 cells assessed as reduction in cell viability incubated for 24 hrs by colorimetric tetrazolium assay; format: functional, cell-based; settings: HepG2, 24 h
[2] = Hemolytic activity in human erythrocytes incubated for 1 hr by microplate reader; format: functional, cell-based; settings: erythrocyte
[3] = tested on: Pseudomonas aeruginosa; assay: Antimicrobial activity against Pseudomonas aeruginosa PAO1 assessed as reduction in bacterial growth incubated for 48 hrs by microdilution susceptibility test; format: functional
[4] = tested on: Escherichia coli; assay: Antimicrobial activity against Escherichia coli ATCC 25922 assessed as reduction in bacterial growth incubated for 48 hrs by microdilution susceptibility test; format: functional
[5] = tested on: Corynebacterium glutamicum; assay: Antimicrobial activity against Corynebacterium glutamicum ATCC 13032 assessed as reduction in bacterial growth incubated for 48 hrs by microdilution susceptibility test; format: functional
[6] = tested on: Staphylococcus aureus; assay: Antimicrobial activity against Staphylococcus aureus ATCC 9144 assessed as reduction in bacterial growth incubated for 48 hrs by microdilution susceptibility test; format: functional
[7] = tested on: MRC5; assay: Cytotoxicity against human MRC5 cells assessed as reduction in cell viability incubated for 24 hrs by colorimetric tetrazolium assay; format: functional, cell-based; settings: MRC5, 24 h
[8] = tested on: Staphylococcus aureus; assay: Antimicrobial activity against extended spectrum-lactamase-carbapenemas producing Staphylococcus aureus N315 assessed as reduction in bacterial growth incubated for 48 hrs by microdilution method; format: functional
[9] = tested on: Staphylococcus aureus; assay: Antimicrobial activity against extended spectrum-lactamase-carbapenemas producing Staphylococcus aureus NCTC 10442 assessed as reduction in bacterial growth incubated for 48 hrs by microdilution method; format: functional
[10] = tested on: Staphylococcus aureus; assay: Antimicrobial activity against extended spectrum-lactamase-carbapenemas producing Staphylococcus aureus strain 85/2082 assessed as reduction in bacterial growth incubated for 48 hrs by microdilution method; format: functional
[11] = tested on: Staphylococcus aureus; assay: Antimicrobial activity against extended spectrum-lactamase-carbapenemas producing Staphylococcus aureus strain WIS assessed as reduction in bacterial growth incubated for 48 hrs by microdilution method; format: functional
[12] = tested on: Staphylococcus aureus; assay: Antimicrobial activity against extended spectrum-lactamase-carbapenemas producing Staphylococcus aureus strain IHT 99040 assessed as reduction in bacterial growth incubated for 48 hrs by microdilution method; format: functional
[13] = tested on: Enterococcus faecium; assay: Antimicrobial activity against extended spectrum-lactamase-carbapenemas producing Enterococcus faecium strain 50673722 assessed as reduction in bacterial growth incubated for 48 hrs by microdilution method; format: functional
[14] = tested on: Enterococcus faecium; assay: Antimicrobial activity against extended spectrum-lactamase-carbapenemas producing Enterococcus faecium strain 50901530 assessed as reduction in bacterial growth incubated for 48 hrs by microdilution method; format: functional
[15] = tested on: Enterococcus faecium; assay: Antimicrobial activity against extended spectrum-lactamase-carbapenemas producing Enterococcus faecium strain K36-18 assessed as reduction in bacterial growth incubated for 48 hrs by microdilution method; format: functional
[16] = tested on: Enterococcus faecium; assay: Antimicrobial activity against extended spectrum-lactamase-carbapenemas producing Enterococcus faecium strain 50758899 assessed as reduction in bacterial growth incubated for 48 hrs by microdilution method; format: functional
[17] = tested on: Enterococcus faecium; assay: Antimicrobial activity against extended spectrum-lactamase-carbapenemas producing Enterococcus faecium strain TUH.50-22 assessed as reduction in bacterial growth incubated for 48 hrs by microdilution method; format: functional
[18] = tested on: Escherichia coli; assay: Antimicrobial activity against oxacillinase-producing Escherichia coli 50579417 assessed as reduction in bacterial growth incubated for 48 hrs by microdilution method; format: functional
[19] = tested on: Escherichia coli; assay: Antimicrobial activity against verona integron-encoded metallo-beta-lactamase-29-producing Escherichia coli 50639799 assessed as reduction in bacterial growth incubated for 48 hrs by microdilution method; format: functional
[20] = tested on: Escherichia coli; assay: Antimicrobial activity against New Delhi metallo-beta lactamase-1 producing Escherichia coli 50676002 assessed as reduction in bacterial growth incubated for 48 hrs by microdilution method; format: functional
[21] = tested on: Escherichia coli; assay: Antimicrobial activity against New Delhi metallo-beta lactamase-1 producing Escherichia coli 50739822 assessed as reduction in bacterial growth incubated for 48 hrs by microdilution method; format: functional
[22] = tested on: Escherichia coli; assay: Antimicrobial activity against imipenem-type carbapenemase-26 producing Escherichia coli 50857972 assessed as reduction in bacterial growth incubated for 48 hrs by microdilution method; format: functional
[23] = tested on: Pseudomonas aeruginosa; assay: Antimicrobial activity against verona integron-encoded metallo-beta-lactamase-2 producing Pseudomonas aeruginosa K34-7 assessed as reduction in bacterial growth incubated for 48 hrs by microdilution method; format: functional
[24] = tested on: Pseudomonas aeruginosa; assay: Antimicrobial activity against verona integron-encoded metallo-beta-lactamase-4 producing Pseudomonas aeruginosa K34-73 assessed as reduction in bacterial growth incubated for 48 hrs by microdilution method; format: functional
[25] = tested on: Pseudomonas aeruginosa; assay: Antimicrobial activity against imipenem-type carbapenemase-14 producing Pseudomonas aeruginosa K44-24 assessed as reduction in bacterial growth incubated for 48 hrs by microdilution method; format: functional
[26] = tested on: Pseudomonas aeruginosa; assay: Antimicrobial activity against New Delhi metallo-beta lactamase-1 producing Pseudomonas aeruginosa 50692172 assessed as reduction in bacterial growth incubated for 48 hrs by microdilution method; format: functional
[27] = tested on: Pseudomonas aeruginosa; assay: Antimicrobial activity against verona integron-encoded metallo-beta-lactamase producing Pseudomonas aeruginosa 50692520 assessed as reduction in bacterial growth incubated for 48 hrs by microdilution method; format: functional
[28] = Antimicrobial activity against carbapenemase producing Klebsiella pneumoniae K47-25 assessed as reduction in bacterial growth incubated for 48 hrs by microdilution method; format: functional
[29] = Antimicrobial activity against New Delhi metallo-beta lactamase-1 Klebsiella pneumoniae K66-45 assessed as reduction in bacterial growth incubated for 48 hrs by microdilution method; format: functional
[30] = Antimicrobial activity against New Delhi metallo-beta lactamase-1 and oxacillinase -181 producing Klebsiella pneumoniae 50531633 assessed as reduction in bacterial growth incubated for 48 hrs by microdilution method; format: functional
[31] = Antimicrobial activity against oxacillinase-245 producing Klebsiella pneumoniae 50625602 assessed as reduction in bacterial growth incubated for 48 hrs by microdilution method; format: functional
[32] = Antimicrobial activity against verona integron-encoded metallo-beta-lactamase -1 producing Klebsiella pneumoniae 50667959 assessed as reduction in bacterial growth incubated for 48 hrs by microdilution method; format: functional
[33] = tested on: Acinetobacter baumannii; assay: Antimicrobial activity against oxacillinase-58 producing Acinetobacter baumannii K12-21 assessed as reduction in bacterial growth incubated for 48 hrs by microdilution method; format: functional
[34] = tested on: Acinetobacter baumannii; assay: Antimicrobial activity against oxacillinase-23 producing Acinetobacter baumannii K44-35 assessed as reduction in bacterial growth incubated for 48 hrs by microdilution method; format: functional
[35] = tested on: Acinetobacter baumannii; assay: Antimicrobial activity against oxacillinase-23 producing Acinetobacter baumannii K47-42 assessed as reduction in bacterial growth incubated for 48 hrs by microdilution method; format: functional
[36] = tested on: Acinetobacter baumannii; assay: Antimicrobial activity against oxacillinase-24 producing Acinetobacter baumannii K55-13 assessed as reduction in bacterial growth incubated for 48 hrs by microdilution method; format: functional
[37] = tested on: Acinetobacter baumannii; assay: Antimicrobial activity against oxacillinase-23 producing Acinetobacter baumannii K63-58 assessed as reduction in bacterial growth incubated for 48 hrs by microdilution method; format: functional

| Compound | IC50 [1] [µg/mL] | EC50 [2] [µg/mL] | MIC [3] [µg/mL] | MIC [4] [µg/mL] | MIC [5] [µg/mL] | MIC [6] [µg/mL] | IC50 [7] [µg/mL] | MIC [8] [µg/mL] | MIC [9] [µg/mL] | MIC [10] [µg/mL] | MIC [11] [µg/mL] | MIC [12] [µg/mL] | MIC [13] [µg/mL] | MIC [14] [µg/mL] | MIC [15] [µg/mL] | MIC [16] [µg/mL] | MIC [17] [µg/mL] | MIC [18] [µg/mL] | MIC [19] [µg/mL] | MIC [20] [µg/mL] | also measured |
| --- | --- | --- | --- | --- | --- | --- | --- | --- | --- | --- | --- | --- | --- | --- | --- | --- | --- | --- | --- | --- | --- |
| N=C(N)NCCCCN1C(=O)N(CCCCNC(=N)N)C(=O)C(Cc2ccc3ccccc3c2)(Cc2ccc3ccccc3c2)C1=O.O=C(O)C(F)(F)F.O=C(O)C(F)(F)F | 59 | 133 | 8 | 1 | 0.25 | 1 | 30 | 8 | 8 | 8 | 8 | 8 | 16 | 8 | 16 | 16 | 8 | 16 | 8 | 8 | MIC [21]: 8 µg/mL; MIC [22]: 8 µg/mL; MIC [23]: 32 µg/mL; MIC [24]: 32 µg/mL; MIC [25]: 32 µg/mL; MIC [26]: 32 µg/mL; MIC [27]: 32 µg/mL; MIC [28]: 16 µg/mL; MIC [29]: 16 µg/mL; MIC [30]: 16 µg/mL; MIC [31]: 16 µg/mL; MIC [32]: 16 µg/mL; MIC [33]: 32 µg/mL; MIC [34]: 32 µg/mL; MIC [35]: 32 µg/mL; MIC [36]: 32 µg/mL; MIC [37]: 32 µg/mL |
| N=C(N)NCCCCN1C(=O)N(CCCCNC(=N)N)C(=O)C(Cc2cc(C(F)(F)F)cc(C(F)(F)F)c2)(Cc2cc(C(F)(F)F)cc(C(F)(F)F)c2)C1=O.O=C(O)C(F)(F)F.O=C(O)C(F)(F)F | 19 | 98 | 8 | 2 | 2 | 2 | 29 | 2 | 2 | 2 | 2 | 2 | 2 | 2 | 4 | 4 | 2 | 8 | 4 | 4 | MIC [21]: 8 µg/mL; MIC [22]: 4 µg/mL; MIC [23]: 16 µg/mL; MIC [24]: 16 µg/mL; MIC [25]: 16 µg/mL; MIC [26]: 16 µg/mL; MIC [27]: 16 µg/mL; MIC [28]: 16 µg/mL; MIC [29]: 16 µg/mL; MIC [30]: 16 µg/mL; MIC [31]: 8 µg/mL; MIC [32]: 16 µg/mL; MIC [33]: 16 µg/mL; MIC [34]: 16 µg/mL; MIC [35]: 16 µg/mL; MIC [36]: 16 µg/mL; MIC [37]: 16 µg/mL |
| N=C(N)NCCCCN1C(=O)N(CCCCNC(=N)N)C(=O)C(Cc2ccc(Br)c(Cl)c2)(Cc2ccc(Br)c(Cl)c2)C1=O.O=C(O)C(F)(F)F.O=C(O)C(F)(F)F | 15 | 77 | 8 | 2 | 0.25 | 0.5 | 36 | 2 | 4 | 2 | 2 | 2 | 4 | 2 | 4 | 4 | 2 | 4 | 4 | 4 | MIC [21]: 4 µg/mL; MIC [22]: 4 µg/mL; MIC [23]: 16 µg/mL; MIC [24]: 8 µg/mL; MIC [25]: 16 µg/mL; MIC [26]: 32 µg/mL; MIC [27]: 16 µg/mL; MIC [28]: 4 µg/mL; MIC [29]: 8 µg/mL; MIC [30]: 4 µg/mL; MIC [31]: 4 µg/mL; MIC [32]: 8 µg/mL; MIC [33]: 8 µg/mL; MIC [34]: 8 µg/mL; MIC [35]: 8 µg/mL; MIC [36]: 8 µg/mL; MIC [37]: 8 µg/mL |
